Results reported in patent publication US6548505B1, “Radioprotectors” (Peter MacCallum Cancer Institute, priority 1995, dated 2003).
Where “and” joins values, the source holds several entries; their conditions need not be identical. Equal values may be shown once.

Columns and labels:
V79 cells [1] = experiment: Radioprotection, clonogenic survival of irradiated V79 cells; format: cell-based; conditions: for DMF: survival curves FIG. 3; for Protector plus irradiation (12 Gy), survival fraction relative to untreated control cells / Protection Factor: 12 Gy; for Protection Factor: ratio of survival fractions with and without protector
Method: (§1) Monolayers of V79 cells were maintained in 25 cm^2 Falcon plastic flasks in alpha-MEM medium with 10% foetal calf serum (FCS). Log phase cultures were treated by adding the required amount of Hoechst 33258, Hoechst 33342 or para dimethylamino Hoechst (25-500 nmoles) dissolved in 50 μL 10 μM acetic acid in 50% methanol. The flasks were inverted immediately prior to adding the compound to ensure complete mixing of the compound with the medium, before contact with the monolayer.
(§2) After 2 hours incubation at 37° C., the cells were harvested and assayed for clonogenic survival. […] All clonogenic survival results are expressed relative to the untreated controls.
Cultures were irradiated in a 137Cs Gammacell-40 (Atomic Energy of Canada Ltd.) at a dose rate of 0.84 Gy/min. Ligand-treated cells were irradiated two hours after starting the exposure to the ligand. In all cases, the clonogenic survival was delayed until one hour after completion of irradiation.
(§3) Hoechst 33258, Hoechst 33342 or para dimethylamino Hoechst was added to the media of monolayers of V79 cells, to the indicated final concentrations. […] All cultures were held for a further one hour prior to plating for clonogenic survival.
Mono layer cultures of V79 cells were exposed to various concentrations of the three radioprotectors, as described in (a) above. After two hours, the cells were chilled and kept cold during the isolation of nuclei, using 0.08% w.v Triton X-100. After counting an aliquot of the nuclear suspension, the ligands were extracted and quantitated by spectrophotometry and the nuclear content calculated. The survival results shown in the lower part of FIG. 1 were replotted using the nuclear uptake data and the results are shown in FIG. 2.
The first three columns show survival fraction relative to that for untreated control cells. Each row represents a separate experiment and the figures are the means of duplicates. The figures in square brackets is the mean of a number of the results of a number of experiments done over the relevant period. The protection factor is the ratio of survival fractions for irradiated cells, with and without protector.
A number of bibenzimidazoles represented by formula (I) have been synthesised and assayed for radioprotective activity in cell culture. Assays were conducted using V79 fibroblasts and involved exposure of the cells to a single radiation dose (12Gy) and comparison of the clonogenic survival with and without the inclusion of the protector in the cell culture medium. The ratio of the survival fractions (with protector/without), designated the protection ratio (PR12Gy), provides a measure of the extent of radioprotection. The experimental protocol adopted was as in Example 12.

pig skin = experiment: Pig skin studies, topical radioprotector cream; format: in vivo; conditions: cream 0.15 g/field
Text: The pig skin model is described by J. W. Hopewell^4. The structural similarities between human and pig skin underlie the relevance of the model.
Although some pig skin studies involve external beam irradiation, a particularly convenient radiation source is discs containing β-emitting isotopes, typically ^90Sr. The sources can be held to the skin, or for higher doses, taped to the animal, for appropriate periods of time to deliver the required dose. The discs are typically about 2 cm in diameter so that an array of different doses can be arranged on the flanks of a single animal.
The “acute” reactions (3-9 weeks after irradiation) result from radiation damage to the basal cells of the epidermis, and are manifest as erythema, and dry and moist desquamation. The “late” reactions (10-16 weeks) results from radiation effects to the dermal vascular connective tissue, characterized by a dusky mauve erythema and necrosis. The scoring system is well described.
The radioprotectors were formulated in a propylene glycol cream containing 10% DMSO. The extent and kinetics of penetration were followed by fluorescence microscopy of frozen skin sections, to enable optimization of delivery.
Radiation dose response curves were constructed for radiation only fields. The results of fields with radioprotector creams are shown in Table 3 below, with the respective cream (vehicle) only controls. The decrease in extent of skin reaction for the test fields is evident.

V79 cells [2] = experiment: Cytotoxicity, clonogenic survival of V79 cells without irradiation
Method: as §1, §2, §3

mouse lung = experiment: Mouse lung model, bilateral lung irradiation; format: in vivo; conditions: maximum breathing rate up to 24 weeks, FIG. 5
Text: Irradiation of mouse lung, at appropriate doses, results in fatal loss of lung function. The onset of damage is signalled by an increase in breathing rate. The dose response and kinetics of loss of lung function following irradiation of both lungs varies between different mouse strains.
The procedures for irradiation and measurement of breathing rate were essentially as described by Travis et al^3. Groups of 5-6 male DBA/2J mice were anaesthetised and irradiated with 250 kV X-rays (single dose) using a jig that shielded all the body except for both lungs. A thin midline lead strip was used to shield spinal cord between the lungs.
At weekly intervals, from 4-6 weeks post-irradiation, the breathing rate was measured for each mouse. The mouse was held in a small chamber equipped with a microphone and the output analysed on a PC. The mean breathing rate was determined for each of 3 periods of 2 seconds and the average of these readings was recorded as the breathing rate. The recorded breathing rates for each group of mice were averaged and the standard error calculated.
All mice were monitored daily for signs of respiratory distress (hunched appearance, raised hair), with particular attention being paid to those mice showing elevated breathing rate.
The radioprotector (2 mg/25 g mouse) was administered 30 minutes prior to the single irradiation dose.

[3] = system: Chinese Hamster Ovary (CHO) fibroblasts; experiment: Radioprotection survival curves of cultured CHO cells (FIG. 7, Table 5); format: cell-based; conditions: ratio of doses reducing survival to 10% of control
Text: where S is the survival fraction at dose D Gy, and α and β are constants.
The fitted values of α and β were used to calculate the radiation doses (D0.1) corresponding to a survival fraction of 0.1. The ratio of the D0.1 values with and without protector, then provided the Dose Modification Factor (DMF) for each compound:
DMF=D0.1(with protector)/D0.1(without)

[4] = system: mouse brain endothelial cells; experiment: Protection of mouse brain endothelial cells; format: in vivo; conditions: 80 mg/kg i.v. 10 minutes prior to radiation, within 24 hours, FIG. 6
Method: Irradiation of rodent brain results in the loss of a subset of brain endothelial cells within 24 hours after irradiation.
Endothelial cell numbers were scored as described by Lyubimova et al. Each point represents the mean for 3-4 mice; 3 sections were scored for each animal, a total of 30 fields were scored for each section, and the figure indicates the average number of cells per field. The error bars indicate standard errors.

HT29 = experiment: Radioprotection DMF in HT29 cells (Table 1); format: cell-based; conditions: HT29, 8.7 μM
CHO = experiment: Radioprotection DMF in CHO cells (Table 1, existing radioprotector); format: cell-based; conditions: 4 mM
[5] = V79 cells, no irradiation, clonogenic survival, FIG. 1

CN1CCN(c2ccc3[nH]c(-c4ccc5[nH]c(-c6ccc(N(C)C)cc6)nc5c4)nc3c2)CC1 [Compound 1, 4Dimethylamino-1-[5′-{5′″-(4′″-methylpiperazin-1′″-yl)benzimidazol-2″-yl]benzimidazol-2′-yl}benzene]
DMF (V79 cells [1]; V79, 84 μM): 1.7 | Protection ratio 12Gy, Exp 8 (V79 cells [1]; V79, 12Gy 137Cs-γ, 20 μM): 5.1 | Protection ratio 12Gy, Exp 8 (V79 cells [1]; V79, 12Gy 137Cs-γ, 40 μM): 7.7 | Protection ratio 12Gy, Exp 8 (V79 cells [1]; V79, 12Gy 137Cs-γ, 50 μM): 8.0 | radioprotective potency, survival after 12Gy in terms of nuclear content of the radioprotector (V79 cells [1]; V79 cells, 12Gy, uptake per 10^6 nuclei, FIG. 2): more potent radioprotector | Fields showing moist desquamation (10 weeks post-Irr.) # (pig skin; 36 Gy, 5000 μg/g): 4/7 | Fields showing moist desquamation (10 weeks post-Irr.) % (pig skin; 36 Gy, 5000 μg/g): 57% | concentration up to which there is no effect on survival (V79 cells [2]; [5]): up to 100 μM

CN(C)c1ccc(-c2nc3cc(-c4nc5cc(N6CCCCC6)ccc5[nH]4)ccc3[nH]2)cc1 [Compound 2, 4-Dimethylamino-1-{5′-[5″-(piperidin-1′″-yl)benzimidazol-2″-yl]benzimidazol-2′-yl}benzene]
Protector plus irradiation (12 Gy), survival fraction relative to untreated control cells (V79 cells [1]; 17 μM): 0.062 and 0.059 | Protection Factor (V79 cells [1]; 17 μM): 2.8 and 2.7 | Protector only (no irradiation), survival fraction relative to untreated control cells (V79 cells [2]; 17 μM): 0.89 and 0.81

Cc1cc(N(C)C)ccc1-c1nc2cc(-c3nc4cc(N5CCN(C)CC5)ccc4[nH]3)ccc2[nH]1 [Compound 5, ortho methyl para dimethylamino Hoechst]
DMF, maximum breathing rate (mouse lung): 1.4 | Protector plus irradiation (12 Gy), survival fraction relative to untreated control cells (V79 cells [1]; 20 μM): 0.15 and 0.145 and 0.12 | Protection Factor (V79 cells [1]; 20 μM): 4.4 and 4.0 and 4.3 | DMF (V79 cells [1]; V79, 30 μM): 2.1 | Protection ratio 12Gy, Exp 5 (V79 cells [1]; V79, 12Gy 137Cs-γ, 30 μM): 17.4 | Protection ratio 12Gy, Exp 10 (V79 cells [1]; V79, 12Gy 137Cs-γ, 30 μM): 18.7 | DMF ([3]; 30 μM): 1.66 | Fields showing moist desquamation (10 weeks post-Irr.) # (pig skin; 40 Gy, 5000 μg/g): 4/8 | Fields showing moist desquamation (10 weeks post-Irr.) % (pig skin; 40 Gy, 5000 μg/g): 50% | Fields showing moist desquamation (10 weeks post-Irr.) # (pig skin; 44 Gy, 5000 μg/g): 4/8 | Fields showing moist desquamation (10 weeks post-Irr.) % (pig skin; 44 Gy, 5000 μg/g): 50% | Protector only (no irradiation), survival fraction relative to untreated control cells (V79 cells [2]; 20 μM): 0.71 and 0.63 and 0.88

CCOc1ccc(-c2nc3cc(-c4nc5cc(N6CCN(C)CC6)ccc5[nH]4)ccc3[nH]2)c(C)c1 [Compound 6, 4-Ethoxy-2-methyl{5′-[5″(4′″-methylpiperazin-1′″-yl)benzimidazol-2″-yl]benzimidazol-2′-yl}benzene]
Protection ratio 12Gy, Exp 3 (V79 cells [1]; V79, 12Gy 137Cs-γ, 20 μM): 8.0

CCOc1ccc(-c2nc3cc(-c4nc5cc(N6CCN(C)CC6)ccc5[nH]4)ccc3[nH]2)c(C(C)C)c1 [Compound 7, 4-Ethoxy-2i-propyl-1-{5′-[5″-(4′″-methylpiperazin-1′″-yl)benzimidazol-2′-yl]benzimidazol-2′-yl}benzene]
Protection ratio 12Gy, Exp 4 (V79 cells [1]; V79, 12Gy 137Cs-γ, 20 μM): 10.8 | Protection ratio 12Gy, Exp 4 (V79 cells [1]; V79, 12Gy 137Cs-γ, 30 μM): 10.4 | Protection ratio 12Gy, Exp 5 (V79 cells [1]; V79, 12Gy 137Cs-γ, 30 μM): 11.3 | Protection ratio 12Gy, Exp 4 (V79 cells [1]; V79, 12Gy 137Cs-γ, 40 μM): 14.2 | Protection ratio 12Gy, Exp 5 (V79 cells [1]; V79, 12Gy 137Cs-γ, 40 μM): 13.2 | Protection ratio 12Gy, Exp 5 (V79 cells [1]; V79, 12Gy 137Cs-γ, 50 μM): 15.2 | DMF ([3]; 20 μM): 1.42

CN1CCN(c2ccc3[nH]c(-c4ccc5[nH]c(-c6cccc(N(C)C)c6)nc5c4)nc3c2)CC1 [Compound 9, 3-N,N-Dimethylamino-1-{5′-[5″-(4′″-methylpiperazin-1′″-yl)benzimidazol-2″-yl]benzimidazol-2′-yl}benzene]
Protection ratio 12Gy, Exp 6 (V79 cells [1]; V79, 12Gy 137Cs-γ, 20 μM): 3.6 | Protection ratio 12Gy, Exp 7 (V79 cells [1]; V79, 12Gy 137Cs-γ, 30 μM): 7.6 | Protection ratio 12Gy, Exp 7 (V79 cells [1]; V79, 12Gy 137Cs-γ, 40 μM): 7.2 | Protection ratio 12Gy, Exp 1 (V79 cells [1]; V79, 12Gy 137Cs-γ, 50 μM): 9.7 | Protection ratio 12Gy, Exp 2 (V79 cells [1]; V79, 12Gy 137Cs-γ, 50 μM): 9.5 | Protection ratio 12Gy, Exp 7 (V79 cells [1]; V79, 12Gy 137Cs-γ, 50 μM): 8.2

CCOc1ccc(-c2cc3ccc(-c4nc5cc(N6CCN(C)CC6)ccc5[nH]4)cc3[nH]2)cc1 [Compound 10, 4-Ethoxy-1-{6′-[5″-(4′″-methylpiperazin-1′″-yl)benzimidazol-2″-yl]indol-2′-yl}benzene]
Protection ratio 12Gy, Exp 9 (V79 cells [1]; V79, 12Gy 137Cs-γ, 20 μM): 1.5 | Protection ratio 12Gy, Exp 9 (V79 cells [1]; V79, 12Gy 137Cs-γ, 40 μM): 1.4

CCOc1ccc(-c2nc3ccc(-c4nc5ccc(N6CCN(C)CC6)cc5[nH]4)cc3[nH]2)cc1 [Hoechst 33342, 4-ethoxy-1-{5′[5′″-(4′″-methylpiperazin-1′″-yl)benzimidazol-2″-yl]benzimidazol-2′-yl}benzene, reference compound]
Protector plus irradiation (12 Gy), survival fraction relative to untreated control cells (V79 cells [1]; 21 μM): 0.05 and 0.06 and 0.051 | Protection Factor (V79 cells [1]; 21 μM): 2.3 and 2.7 | DMF (V79 cells [1]; V79, 21 μM): 1.3 | Protection ratio 12Gy, Exp 1 (V79 cells [1]; V79, 12Gy 137Cs-γ, 20 μM): 7.2 | Protection ratio 12Gy, Exp 4 (V79 cells [1]; V79, 12Gy 137Cs-γ, 20 μM): 11.8 | Protection ratio 12Gy, Exp 9 (V79 cells [1]; V79, 12Gy 137Cs-γ, 20 μM): 7.1 | loss of endothelial cells of mouse brain after irradiation [4]: protected | DMF (HT29): 1.5 | Fields showing moist desquamation (10 weeks post-Irr.) # (pig skin; 36 Gy, 5000 μg/g): 3/7 | Fields showing moist desquamation (10 weeks post-Irr.) % (pig skin; 36 Gy, 5000 μg/g): 43% | Fields showing moist desquamation (10 weeks post-Irr.) # (pig skin; 40 Gy, 500 μg/g): 4/6 | Fields showing moist desquamation (10 weeks post-Irr.) % (pig skin; 40 Gy, 500 μg/g): 83% | Protector only (no irradiation), survival fraction relative to untreated control cells (V79 cells [2]; 21 μM): 0.80 and 0.87 and 0.76 | concentration above which the protector becomes cytotoxic (V79 cells [2]; [5]): 20 to 30 µM

NCCCNCCS [WR1065]
DMF (CHO): 1.9

CN1CCN(c2ccc3[nH]c(-c4ccc5[nH]c(-c6ccc([N+](=O)[O-])cc6)nc5c4)nc3c2)CC1 [para nitro Hoechst, reference compound]
Protector plus irradiation (12 Gy), survival fraction relative to untreated control cells (V79 cells [1]; 20 μM): 0.011 | Protection Factor (V79 cells [1]; 20 μM): [0.5]* | Protector only (no irradiation), survival fraction relative to untreated control cells (V79 cells [2]; 20 μM): 0.89
